According to PubChem BioAssay (NCI):
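Values below derive from 48-hour exposures of cells grown in 96-well plates, with endpoints linearly interpolated between the two concentrations bracketing the appropriate inhibition level. TGI marks complete inhibition of growth.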

Legend:
Assay in all cases: inhibition of tumour cell growth, NCI panel, 48 h
[1] = system: PC-3 prostate
[2] = system: SR leukemia
[3] = system: SK-MEL-2 melanoma
[4] = system: SF-268 CNS
[5] = system: SN12C renal
[6] = system: HCC-2998 colon
[7] = system: A549 NSCLC
[8] = system: A498 renal
[9] = system: HS 578T breast
[10] = system: NCI-H23 lung
[11] = system: MDA-MB-435
[12] = system: U251 CNS
[13] = system: SK-MEL-28 melanoma
[14] = system: HCT-116 colon
[15] = system: OVCAR-3 ovarian
[16] = system: TK-10 renal
[17] = system: NCI-H226 lung
[18] = system: CAKI-1 renal
[19] = system: MOLT-4 leukemia
[20] = system: NCI-H460 lung
[21] = system: HCT-15 colon
[22] = system: CCRF-CEM leukemia
[23] = system: UACC-62 melanoma
[24] = system: K-562 leukemia
[25] = system: ACHN renal
[26] = system: OVCAR-8 ovarian
[27] = system: HT29 colon
[28] = system: MCF7 breast
[29] = system: SW-620 colon
[30] = system: HOP-92 NSCLC
[31] = system: EKVX NSCLC
[32] = system: LOX IMVI melanoma
[33] = system: M14 melanoma
[34] = system: DU-145 prostate
[35] = system: SK-MEL-5 melanoma
[36] = system: SF-295 CNS
[37] = system: SNB-19 CNS
[38] = system: UACC-257 melanoma
[39] = system: SK-OV-3 ovarian
[40] = system: SF-539 CNS
[41] = system: HOP-62 NSCLC
[42] = system: COLO 205 colon
[43] = system: 786-0 renal
[44] = system: RXF 393 renal
[45] = system: RPMI-8226 leukemia
[46] = system: OVCAR-4 ovarian
[47] = system: UO-31 renal
[48] = system: MDA-MB-231 breast
[49] = system: BT-549 breast
[50] = system: T-47D breast
[51] = system: NCI-H522 lung
[52] = system: OVCAR-5 ovarian
[53] = system: KM12 colon
[54] = system: IGROV1 ovarian
[55] = system: HL-60(TB) leukemia
[56] = system: MDA-N
[57] = system: SNB-75 CNS
[58] = system: NCI/ADR-RES ovarian
[59] = system: MALME-3M melanoma

## COc1cc(C2c3cc4c(cc3OC(N3CCNCC3)C2C)OCO4)cc(OC)c1OC (centres undefined)
[1]
  TGI: > 34.4 µM
[2]
  TGI: 3.88 µM
[3]
  TGI: > 40.6 µM
[4]
  TGI: > 44.2 µM
[5]
  TGI: > 53.2 µM
[6]
  TGI: 5.83 µM
[7]
  TGI: > 53.9 µM
[8]
  TGI: 52.1 µM
[9]
  TGI: 3.35 µM
[10]
  TGI: > 100 µM
[11]
  TGI: 1.1 µM
[12]
  TGI: > 43.8 µM
[13]
  TGI: 38.6 µM
[14]
  TGI: 9.23 µM
[15]
  TGI: 0.512 µM
[16]
  TGI: > 100 µM
[17]
  TGI: 8.78 µM
[18]
  TGI: 4.29 µM
[19]
  TGI: 14.4 µM
[20]
  TGI: 10.9 µM
[21]
  TGI: > 39.9 µM
[22]
  TGI: 17.7 µM
[23]
  TGI: 14.9 µM
[24]
  TGI: 10.9 µM
[25]
  TGI: 48.7 µM
[26]
  TGI: > 37.8 µM
[27]
  TGI: 7.54 µM
[28]
  TGI: 66.1 µM
[29]
  TGI: 17.3 µM
[30]
  TGI: 24.8 µM
[31]
  TGI: > 100 µM
[32]
  TGI: 19 µM
[33]
  TGI: 20 µM
[34]
  TGI: > 28.5 µM
[35]
  TGI: 4.03 µM
[36]
  TGI: 0.822 µM
[37]
  TGI: > 82.3 µM
[38]
  TGI: > 47.9 µM
[39]
  TGI: > 23.4 µM
[40]
  TGI: 1.94 µM
[41]
  TGI: 27.3 µM
[42]
  TGI: 2 µM
[43]
  TGI: 15.7 µM
[44]
  TGI: 0.99 µM
[45]
  TGI: 17.3 µM
[46]
  TGI: 21.6 µM
[47]
  TGI: 15.6 µM
[48]
  TGI: 2.46 µM
[49]
  TGI: 30.2 µM
[50]
  TGI: > 100 µM
[51]
  TGI: 8.32 µM
[52]
  TGI: > 100 µM
[53]
  TGI: 9.87 µM
[54]
  TGI: 17.5 µM
[55]
  TGI: 0.929 µM
[56]
  TGI: 0.652 µM

## N#C/C(=C/NC(=S)c1ccncc1)C(N)=O
[3]
  TGI: > 100 µM
[4]
  TGI: > 100 µM
[5]
  TGI: > 100 µM
[6]
  TGI: > 100 µM
[7]
  TGI: > 100 µM
[8]
  TGI: > 100 µM
[10]
  TGI: > 100 µM
[11]
  TGI: > 100 µM
[12]
  TGI: > 100 µM
[13]
  TGI: > 100 µM
[14]
  TGI: > 100 µM
[57]
  TGI: > 100 µM
[15]
  TGI: > 100 µM
[16]
  TGI: > 100 µM
[17]
  TGI: > 100 µM
[18]
  TGI: > 100 µM
[19]
  TGI: > 100 µM
[20]
  TGI: > 100 µM
[21]
  TGI: > 100 µM
[58]
  TGI: > 100 µM
[23]
  TGI: > 100 µM
[25]
  TGI: > 100 µM
[26]
  TGI: > 100 µM
[27]
  TGI: > 100 µM
[28]
  TGI: > 100 µM
[29]
  TGI: > 100 µM
[30]
  TGI: > 100 µM
[31]
  TGI: > 100 µM
[32]
  TGI: > 100 µM
[33]
  TGI: > 100 µM
[34]
  TGI: > 100 µM
[35]
  TGI: > 100 µM
[36]
  TGI: > 100 µM
[37]
  TGI: > 100 µM
[38]
  TGI: > 100 µM
[39]
  TGI: > 100 µM
[40]
  TGI: > 100 µM
[41]
  TGI: > 100 µM
[42]
  TGI: > 100 µM
[43]
  TGI: > 100 µM
[44]
  TGI: > 100 µM
[46]
  TGI: > 100 µM
[47]
  TGI: > 100 µM
[48]
  TGI: > 100 µM
[49]
  TGI: > 100 µM
[50]
  TGI: > 100 µM
[52]
  TGI: > 100 µM
[53]
  TGI: > 100 µM
[54]
  TGI: > 100 µM
[55]
  TGI: > 100 µM
[56]
  TGI: > 100 µM

## CCOC(=O)Oc1ccc2c(c1)c(=O)c1c(NCCN(CC)CC)ccc3nnn2c31
[1]
  TGI: 15.1 µM
[2]
  TGI: 12.9 µM
[3]
  TGI: 27 µM
[4]
  TGI: 17.1 µM
[5]
  TGI: 15.1 µM
[6]
  TGI: 17.4 µM
[7]
  TGI: 12.4 µM
[8]
  TGI: 21.5 µM
[9]
  TGI: 22.9 µM
[10]
  TGI: 18.1 µM
[11]
  TGI: 16.4 µM
[12]
  TGI: 17 µM
[13]
  TGI: 24.1 µM
[14]
  TGI: 12.6 µM
[15]
  TGI: 19.7 µM
[16]
  TGI: 16.2 µM
[17]
  TGI: 7.71 µM
[18]
  TGI: 2.63 µM
[19]
  TGI: 13.6 µM
[20]
  TGI: 9.44 µM
[21]
  TGI: 16.6 µM
[58]
  TGI: 18.9 µM
[22]
  TGI: 1.54 µM
[23]
  TGI: 24.3 µM
[24]
  TGI: > 36.3 µM
[25]
  TGI: 11.6 µM
[26]
  TGI: 14.3 µM
[27]
  TGI: 11.7 µM
[28]
  TGI: 12 µM
[29]
  TGI: 13.2 µM
[30]
  TGI: 21.4 µM
[31]
  TGI: 19.9 µM
[32]
  TGI: 4.16 µM
[33]
  TGI: 19.1 µM
[34]
  TGI: 8.29 µM
[35]
  TGI: 16.1 µM
[36]
  TGI: 19.5 µM
[37]
  TGI: 15.9 µM
[38]
  TGI: 21.1 µM
[39]
  TGI: 22.6 µM
[40]
  TGI: 13.5 µM
[41]
  TGI: 7.22 µM
[42]
  TGI: 14.9 µM
[43]
  TGI: 13 µM
[44]
  TGI: 18.8 µM
[45]
  TGI: 4.86 µM
[46]
  TGI: 11.9 µM
[47]
  TGI: 1.24 µM
[48]
  TGI: 17.6 µM
[49]
  TGI: 23.1 µM
[50]
  TGI: 29.2 µM
[51]
  TGI: 6.61 µM
[59]
  TGI: 22 µM
[52]
  TGI: 22.7 µM
[53]
  TGI: 14.9 µM
[54]
  TGI: 21.7 µM
[56]
  TGI: 15.6 µM
